Reference: ChEMBL document CHEMBL4004825 (J Med Chem, 2017)
Calls of active or inactive are those of the source. No cut-off for these calls is given here.

Tests used:
[1] = target: T1, Tyrosine-protein kinase JAK3 (Homo sapiens, UniProt P52333); assay: Inhibition of recombinant human GST-tagged cytoplasmic JAK3 catalytic domain (781 to 1124 residues) expressed in baculovirus expression system using FITC-KGGEEEEYFELVKK as substrate in presence of 1 mM ATP by microfluidic assay
T1 sequence (P52333 whole entry): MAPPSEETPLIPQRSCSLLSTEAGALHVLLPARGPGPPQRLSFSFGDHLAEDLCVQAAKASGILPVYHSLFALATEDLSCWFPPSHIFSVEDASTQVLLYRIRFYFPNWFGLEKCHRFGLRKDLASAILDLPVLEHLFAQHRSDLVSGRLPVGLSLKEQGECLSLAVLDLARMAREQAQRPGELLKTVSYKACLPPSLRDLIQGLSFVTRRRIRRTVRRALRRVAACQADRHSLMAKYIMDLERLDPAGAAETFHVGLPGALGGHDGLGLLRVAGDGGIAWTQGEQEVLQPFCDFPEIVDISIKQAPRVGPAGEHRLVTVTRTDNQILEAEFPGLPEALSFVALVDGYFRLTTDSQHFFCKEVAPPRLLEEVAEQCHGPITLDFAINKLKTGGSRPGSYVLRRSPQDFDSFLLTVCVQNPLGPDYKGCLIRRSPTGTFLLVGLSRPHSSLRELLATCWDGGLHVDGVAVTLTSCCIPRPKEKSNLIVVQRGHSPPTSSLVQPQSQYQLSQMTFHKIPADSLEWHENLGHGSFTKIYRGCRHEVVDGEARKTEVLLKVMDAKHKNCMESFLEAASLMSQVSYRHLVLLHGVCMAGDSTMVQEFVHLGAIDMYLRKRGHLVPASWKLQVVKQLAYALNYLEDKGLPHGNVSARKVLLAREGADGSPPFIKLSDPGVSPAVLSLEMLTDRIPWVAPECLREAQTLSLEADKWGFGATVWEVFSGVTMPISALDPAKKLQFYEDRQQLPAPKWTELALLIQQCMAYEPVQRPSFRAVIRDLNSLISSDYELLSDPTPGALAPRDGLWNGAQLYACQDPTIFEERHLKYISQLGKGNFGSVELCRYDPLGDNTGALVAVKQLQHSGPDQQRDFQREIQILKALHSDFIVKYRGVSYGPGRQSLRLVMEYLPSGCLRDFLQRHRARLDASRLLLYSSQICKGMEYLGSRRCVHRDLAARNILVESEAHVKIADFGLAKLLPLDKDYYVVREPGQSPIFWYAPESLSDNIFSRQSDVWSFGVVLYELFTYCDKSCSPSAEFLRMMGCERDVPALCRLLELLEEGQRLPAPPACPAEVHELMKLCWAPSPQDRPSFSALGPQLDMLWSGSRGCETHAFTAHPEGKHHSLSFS

[2] = target: T2, Tyrosine-protein kinase JAK1 (Homo sapiens, UniProt P23458); assay: Inhibition of recombinant human GST-tagged cytoplasmic JAK1 catalytic domain (866 to 1154 residues) expressed in baculovirus expression system using 5FAM-KKSRGDYMTMQID as substrate in presence of 40 uM ATP by microfluidic assay
T2 sequence (P23458 whole entry, the tested form may be a part): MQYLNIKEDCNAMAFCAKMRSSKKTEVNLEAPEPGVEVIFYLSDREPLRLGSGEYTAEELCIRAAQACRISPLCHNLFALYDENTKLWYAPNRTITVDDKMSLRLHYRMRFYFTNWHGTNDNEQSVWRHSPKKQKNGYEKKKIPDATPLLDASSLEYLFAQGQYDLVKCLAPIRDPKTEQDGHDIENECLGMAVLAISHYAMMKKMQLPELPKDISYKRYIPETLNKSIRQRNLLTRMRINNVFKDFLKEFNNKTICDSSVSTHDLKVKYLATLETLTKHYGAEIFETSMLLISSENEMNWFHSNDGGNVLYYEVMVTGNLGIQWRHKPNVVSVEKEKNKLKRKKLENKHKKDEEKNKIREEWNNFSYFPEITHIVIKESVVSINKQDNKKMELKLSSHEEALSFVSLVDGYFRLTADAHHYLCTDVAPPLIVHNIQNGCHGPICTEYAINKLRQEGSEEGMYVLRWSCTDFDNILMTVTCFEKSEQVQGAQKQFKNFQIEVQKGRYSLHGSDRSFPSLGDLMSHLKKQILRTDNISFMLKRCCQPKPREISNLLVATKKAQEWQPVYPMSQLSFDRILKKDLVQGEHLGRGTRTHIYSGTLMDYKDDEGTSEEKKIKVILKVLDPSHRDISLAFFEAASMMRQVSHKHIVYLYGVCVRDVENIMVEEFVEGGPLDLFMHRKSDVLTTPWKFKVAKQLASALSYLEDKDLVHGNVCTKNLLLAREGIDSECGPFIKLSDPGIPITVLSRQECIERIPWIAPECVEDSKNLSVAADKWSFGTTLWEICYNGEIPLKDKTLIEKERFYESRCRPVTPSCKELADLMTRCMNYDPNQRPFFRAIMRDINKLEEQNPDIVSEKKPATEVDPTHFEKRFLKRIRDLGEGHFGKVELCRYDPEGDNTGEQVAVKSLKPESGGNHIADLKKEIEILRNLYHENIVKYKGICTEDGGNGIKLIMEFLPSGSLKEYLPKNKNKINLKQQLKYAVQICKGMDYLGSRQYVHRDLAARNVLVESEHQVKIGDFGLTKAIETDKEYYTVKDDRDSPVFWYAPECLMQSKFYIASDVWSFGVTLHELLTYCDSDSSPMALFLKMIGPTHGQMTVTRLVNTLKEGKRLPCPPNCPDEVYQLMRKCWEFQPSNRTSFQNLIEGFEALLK

[3] = target: T2, Tyrosine-protein kinase JAK1; assay: Inhibition of recombinant human GST-tagged cytoplasmic JAK1 catalytic domain (866 to 1154 residues) expressed in baculovirus expression system using 5FAM-KKSRGDYMTMQID as substrate in presence of 1 mM ATP by microfluidic assay
[4] = target: Tyrosine-protein kinase JAK2 (Homo sapiens, UniProt O60674); assay: Inhibition of recombinant human GST-tagged cytoplasmic JAK2 catalytic domain (809 to 1153+9 residues) expressed in baculovirus expression system using FITC-KGGEEEEYFELVKK as substrate in presence of 1 mM ATP by microfluidic assay
Sequence of Tyrosine-protein kinase JAK2 (O60674 whole entry, the tested form may be a part): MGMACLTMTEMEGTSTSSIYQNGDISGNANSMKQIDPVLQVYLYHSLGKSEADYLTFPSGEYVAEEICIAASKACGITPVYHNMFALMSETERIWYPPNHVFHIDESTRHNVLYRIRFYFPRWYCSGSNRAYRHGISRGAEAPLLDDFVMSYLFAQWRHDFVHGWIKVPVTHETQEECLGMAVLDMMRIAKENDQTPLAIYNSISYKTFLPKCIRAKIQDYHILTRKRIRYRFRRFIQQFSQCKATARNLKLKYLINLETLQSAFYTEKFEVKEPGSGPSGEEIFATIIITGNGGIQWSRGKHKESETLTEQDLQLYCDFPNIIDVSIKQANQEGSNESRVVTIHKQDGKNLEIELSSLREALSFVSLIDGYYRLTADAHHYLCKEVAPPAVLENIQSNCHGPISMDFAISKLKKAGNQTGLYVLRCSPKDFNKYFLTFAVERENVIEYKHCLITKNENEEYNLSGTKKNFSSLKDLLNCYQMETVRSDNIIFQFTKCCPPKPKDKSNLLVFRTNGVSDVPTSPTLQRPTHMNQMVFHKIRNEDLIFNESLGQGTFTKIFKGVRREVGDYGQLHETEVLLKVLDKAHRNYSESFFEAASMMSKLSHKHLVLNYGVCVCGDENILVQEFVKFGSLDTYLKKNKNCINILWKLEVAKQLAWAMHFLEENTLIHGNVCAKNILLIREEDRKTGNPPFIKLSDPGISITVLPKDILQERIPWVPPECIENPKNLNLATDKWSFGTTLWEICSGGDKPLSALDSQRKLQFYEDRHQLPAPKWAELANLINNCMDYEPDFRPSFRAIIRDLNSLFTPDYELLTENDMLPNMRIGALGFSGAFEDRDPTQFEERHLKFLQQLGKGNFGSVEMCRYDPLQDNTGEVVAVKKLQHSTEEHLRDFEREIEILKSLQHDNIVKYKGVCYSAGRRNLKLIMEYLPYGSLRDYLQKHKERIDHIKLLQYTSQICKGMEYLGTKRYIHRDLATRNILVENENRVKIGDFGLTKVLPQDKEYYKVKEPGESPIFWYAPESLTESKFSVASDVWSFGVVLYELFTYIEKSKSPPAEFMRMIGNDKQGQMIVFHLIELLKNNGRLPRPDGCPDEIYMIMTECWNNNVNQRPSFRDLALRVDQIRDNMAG

[5] = target: Non-receptor tyrosine-protein kinase TYK2 (Homo sapiens, UniProt P29597); assay: Inhibition of recombinant human His-tagged TYK2 expressed in baculovirus infected sf21 cells using 5FAM-KKSRGDYMTMQID as substrate in presence of 1 mM ATP by microfluidic assay
Sequence of Non-receptor tyrosine-protein kinase TYK2 (P29597 whole entry, the tested form may be a part): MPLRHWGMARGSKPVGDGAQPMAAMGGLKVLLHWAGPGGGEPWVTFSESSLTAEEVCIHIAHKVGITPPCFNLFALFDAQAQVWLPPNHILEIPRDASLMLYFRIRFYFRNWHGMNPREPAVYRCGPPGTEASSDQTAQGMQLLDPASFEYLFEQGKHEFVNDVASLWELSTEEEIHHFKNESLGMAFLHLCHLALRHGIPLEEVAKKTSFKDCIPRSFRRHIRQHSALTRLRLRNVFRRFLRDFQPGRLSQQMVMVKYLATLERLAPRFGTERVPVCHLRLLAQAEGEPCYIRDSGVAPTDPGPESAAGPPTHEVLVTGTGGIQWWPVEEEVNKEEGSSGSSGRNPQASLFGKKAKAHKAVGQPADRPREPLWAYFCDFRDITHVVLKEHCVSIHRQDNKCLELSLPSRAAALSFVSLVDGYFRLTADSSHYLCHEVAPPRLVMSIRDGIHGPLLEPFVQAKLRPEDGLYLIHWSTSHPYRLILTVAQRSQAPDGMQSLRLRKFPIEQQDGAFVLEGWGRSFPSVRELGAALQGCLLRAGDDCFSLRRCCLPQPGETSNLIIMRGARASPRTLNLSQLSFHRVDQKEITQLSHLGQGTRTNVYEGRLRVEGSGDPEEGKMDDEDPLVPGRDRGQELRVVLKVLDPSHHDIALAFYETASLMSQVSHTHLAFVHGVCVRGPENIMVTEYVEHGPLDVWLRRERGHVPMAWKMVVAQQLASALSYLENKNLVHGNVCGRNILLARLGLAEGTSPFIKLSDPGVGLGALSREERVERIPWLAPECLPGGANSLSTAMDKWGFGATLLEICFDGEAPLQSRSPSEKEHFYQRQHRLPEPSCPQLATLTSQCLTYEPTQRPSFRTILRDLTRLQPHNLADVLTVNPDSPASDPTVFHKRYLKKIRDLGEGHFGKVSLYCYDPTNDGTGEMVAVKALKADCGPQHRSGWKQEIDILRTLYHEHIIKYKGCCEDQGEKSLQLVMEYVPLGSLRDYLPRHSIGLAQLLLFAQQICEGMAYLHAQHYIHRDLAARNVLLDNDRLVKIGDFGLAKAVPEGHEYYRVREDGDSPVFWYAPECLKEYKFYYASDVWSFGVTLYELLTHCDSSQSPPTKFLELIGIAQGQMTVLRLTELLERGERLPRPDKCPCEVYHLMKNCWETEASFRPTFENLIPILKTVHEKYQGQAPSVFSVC

[6] = target: T1, Tyrosine-protein kinase JAK3; assay: Inhibition of recombinant human GST-tagged cytoplasmic JAK3 catalytic domain (781 to 1124 residues) expressed in baculovirus expression system using FITC-KGGEEEEYFELVKK as substrate in presence of 4 uM ATP by microfluidic assay
[7] = Stability in human whole blood assessed as GST-mediated clearance by measuring half-life at 1 uM by LC-MS/MS analysis; assay type: ADME
Mus musculus [8] = assay: Anti-inflammatory activity in sheep RBC-sensitized BALB/c mouse model of delayed-type hypersensitivity assessed as reduction in right hind foot pad thickness at 30 mg/kg, po administered twice daily for 7 days pretreated for 1 day followed by SRBC challenge and subsequent compound treatment for 6 days measured 24 hrs post SRBC rechallenge on day 6; assay type: functional, organism-based
[9] = target: T1, Tyrosine-protein kinase JAK3; assay: Inhibition of JAK3 in human whole blood assessed as inhibition of IL-15 induced STAT5 phosphorylation preincubated for 45 mins followed by IL-15 addition and measured after 15 mins by Alexa Fluor 647 staining based flow cytometric analysis
[10] = target: T1, Tyrosine-protein kinase JAK3; assay: Inhibition of JAK3 in human PBMC assessed as inhibition of IL-15 induced STAT5 phosphorylation preincubated for 75 mins followed by IL-15 addition and measured after 15 mins by Alexa Fluor 647 staining based flow cytometry
[11] = Stability in human liver microsomes; assay type: ADME, microsome; conditions: read-out: Stability
[12] = Stability in rat liver microsomes; assay type: ADME, microsome; conditions: read-out: Stability
[13] = Permeability in RRCK cells; assay type: ADME, cell-based, Canis lupus familiaris, MDCKII-LE; conditions: dog, MDCK; read-out: permeability
[14] = Half-life in human whole blood at 1 uM by LC-MS/MS analysis; assay type: ADME
[15] = Half-life in Sprague-Dawley rat blood at 1 uM by LC-MS/MS analysis; assay type: ADME, tissue-based
[16] = Clearance in rat in absence of CYP450 inhibitor ABT; assay type: ADME
[17] = Clearance in rat in presence of CYP450 inhibitor ABT; assay type: ADME; conditions: with ABT (CYP450 inhibitor)
Mus musculus [18] = assay: Anti-inflammatory activity in po dosed sheep RBC-sensitized BALB/c mouse model of delayed-type hypersensitivity assessed as reduction in right hind foot pad thickness administered once daily for 7 days pretreated for 1 day followed by SRBC challenge and subsequent compound treatment for 6 days measured 24 hrs post SRBC rechallenge on day 6; assay type: functional, organism-based

Row | SMILES | IC50 [1] [µM] | IC50 [2] [µM] | IC50 [3] [µM] | IC50 [4] [µM] | IC50 [5] [µM] | IC50 [6] [µM] | also measured
1 | C=CC(=O)N1CC[C@@H](C)[C@@H](N(C)c2ncnc3[nH]ccc23)C1 | 1.93 | 0.274 | 0.988 | 2.03 | > 10 | – | –
2 | C=CC(=O)N1CCC[C@@H](N(C)c2ncnc3[nH]ccc23)C1 | 3.84 | 1.15 | 7.82 | > 10 | > 10 | 0.018 | –
3 | C=CC(=O)N1C[C@@H](C)C[C@@H](Nc2ncnc3[nH]ccc23)C1 (single isomer, unassigned) | – | – | – | – | – | – | half-life at 1 µM [7]: > 4.17 h
4 | C=CC(=O)N1CCC[C@@H](Nc2ncnc3[nH]ccc23)[C@H]1C (racemic) | > 1 | – | – | – | – | – | half-life at 1 µM [7]: > 6 h
5 | C[C@@H]1CCN(C(=O)CC#N)C[C@@H]1N(C)c1ncnc2[nH]ccc12 | – | – | – | – | – | – | Activity (Mus musculus [8]): Active
6 | C=CC(=O)N1CCC[C@@H](Nc2ncnc3[nH]ccc23)C1 | 0.056 | 1.4 | > 10 | > 10 | > 10 | – | IC50 [9]: 0.58 µM; IC50 [10]: 0.107 µM; microsomal CLint [11]: 8 µL/min/mg; microsomal CLint [12]: < 15 µL/min/mg; Papp [13]: 80 nm/s; half-life at 1 µM [14]: 5.53 h; half-life at 1 µM [15]: 1.63 h
7 | C=CC(=O)N1CC[C@H]2CCN(c3ncnc4[nH]ccc34)[C@H]2C1 | – | 0.984 | > 10 | > 10 | > 10 | – | microsomal CLint [11]: 12.2 µL/min/mg; microsomal CLint [12]: 70 µL/min/mg; Papp [13]: 200 nm/s; half-life at 1 µM [14]: 3.2 h; half-life at 1 µM [15]: 2.73 h; clearance [16]: 6.54 L/h/kg; clearance [17]: 4.86 L/h/kg; Activity (Mus musculus [18]): Dose-dependent effect
8 | C=CC(=O)N1CC[C@H](C)[C@@H](Nc2ncnc3[nH]ccc23)C1 | – | – | – | – | – | – | half-life at 1 µM [7]: > 5 h
9 | C/C=C/C(=O)N1CCC[C@@H](Nc2ncnc3[nH]ccc23)C1 | > 10 | 2.29 | > 10 | > 10 | > 10 | 1.61 | –
10 | C=CC(=O)Nc1cccc(-c2ncnc3[nH]ccc23)c1 | 0.029 | 0.966 | 8.71 | > 10 | > 10 | 0.0003 | IC50 [9]: 2.28 µM; IC50 [10]: 0.032 µM
11 | CC(=O)N1CC[C@H]2CCN(c3ncnc4[nH]ccc34)[C@H]2C1 | > 10 | 0.863 | > 10 | > 10 | > 10 | 0.372 | microsomal CLint [11]: < 8 µL/min/mg; microsomal CLint [12]: 25 µL/min/mg; Papp [13]: 160 nm/s; clearance [16]: 4.56 L/h/kg; clearance [17]: 0.6 L/h/kg
